# In patent US20090232912A1, “Method For Preparing Extract For The Prevention and Treatment Of Hyperlipidemia and Obesity From the Extract of Aster Spathulifolius Aerial Part and Composition Containing The Same” (priority 2005, published 2009):
# Marks after values point to notes of the source that are not given here.
# How the values were obtained:
# Type in all cases: in vivo, rat (Sprague-Dawley male)
# [1] = system: rats fed high fat diet; test: Experiment 4: body weight, food intake and food efficiency ratio of rats fed high fat diet; settings: Exp.4 HFD rats; orally once a day 6 weeks; AE-B 125, AE-C 100, AE-1 10, ABP 1.5 mg/kg
# Text: (§1) The rats, aged 6 week-old and weighing 170˜180 g Sprague-Dawley male, were purchased from Samtaco (Seoul, Korea). After the animals were given a standard laboratory diet for 1 week, they were divided two groups each group. Rats were fed two diets: the normal diet (ND, n=10) group and high fat diet (HFD, n=50) group. 6 weeks later, HFD group were subdivided five groups. They were administrated with extract of Aster spathulifolius aerial part orally once a day for 6 weeks.
# HFD group: High fat diet+0.5% carboxymethycelluose
# HFD+AE-B group: High fat diet+AE-B 125 mg/kg
# HFD+AE-C group: High fat diet+AE-C 100 mg/kg
# HFD+AE-1 group: High fat diet+AE-110 mg/kg
# HFD+ABP group: High fat diet+ABP 1.5 mg/kg
# (§2) The experimental diets contain either a normal fat (11.7% of calories as fat, AIN-76A diet # 100000, Dyets Inc., Bethlehem, Pa., USA) or a high fat (40% of calories as fat, AIN-76A high fat diet # 100496, Dyets Inc., Bethlehem, Pa., USA) (Table 1). During the test period, food intake and body weight were measured twice a week. Food efficiency ratio was calculated by dividing the increase in body weight during the test period by the food intake during the period.
# [2] = system: rats fed high fat diet; test: Experiment 4: white adipocyte size and adipose tissue weights; settings: Exp.4 HFD rats; after 12 weeks; AE-B 125, AE-C 100, AE-1 10, ABP 1.5 mg/kg once a day 6 weeks
# Text: as §1
# A is ND Group, B is HFD-C group, C is HFD+AE-B group, D is HFD+AE-C group, E is HFD+AE-1 group and F is HFD+ABP group.
# (§3) After 12 weeks, rats were anesthetized with ether and sacrificed after 14 h of fasting. Blood samples were collected from hepatic vein and centrifuged (3,000 rpm for 10 min at 4° C.). Serum was frozen at −70° C. for the biochemical analysis. The epididymal and abdominal fat pad were immediately weighed, measured size of adipocyte using microscope.
# [3] = system: rats fed high fat diet; test: Experiment 4: hepatic lipids (TG, TC, FFA); settings: Exp.4 HFD rats; AE-B 125, AE-C 100, AE-1 10, ABP 1.5 mg/kg once a day 6 weeks
# Text: as §1
# (§4) Hepatic lipid was extracted by the method devised by Folch et al. and its content was measured by the same technique used for the serum analysis. […] There was no significant difference in hepatic free fatty acid (FFA) level.
# [4] = system: rats fed high fat diet; test: Experiment 4: serum leptin, insulin and glucose; settings: Exp.4 HFD rats; AE-B 125, AE-C 100, AE-1 10, ABP 1.5 mg/kg once a day 6 weeks
# Text: as §1, §3
# (§5) Serum leptin and insulin was measured by RIA using Linco leptin assay kit (Linco research Immunoassay, St. Louis, Mo.) and insulin standards (Linco research Immunoassay, St. Louis, Mo.) respectively (FIG. 5).
# [5] = system: rats fed high fat diet; test: Experiment 5: food intake, change of body weights and food efficiency ratio; settings: Exp.5 HFD rats
# Experimental: as §2
# as §1, with “n=8)” for “n=10)”, “n=88)” for “n=50)”, “11 groups (n=8).” for “five groups.”, “weeks. […]” for “weeks.”
# AE-1 20 group: High fat diet+AE-1 (Germacrone) 20 mg/kg
# AE-1 10 group: High fat diet+AE-1(Germacrone) 10 mg/kg
# AE-1 5 group: High fat diet+AE-1 (Germacrone) 5 mg/kg […]
# Experimental diet is same table 1 of experiment 4. Food intake, change of body weights and food efficiency ratio were shown Table 6.
# [6] = system: rats fed high fat diet; test: Experiment 5: adipocyte (fat) weight; settings: Exp.5 HFD rats
# Experimental: as §3
# as §1, with “n=8)” for “n=10)”, “n=88)” for “n=50)”, “11 groups (n=8).” for “five groups.”
# Adipocyte weight were determined method of experiment 5. EASA treated groups reduced white adipocyte versus the HFD group, in a dose-dependent manner.
# [7] = system: rats fed high fat diet; test: Experiment 5: levels of lipid in serum; settings: Exp.5 HFD rats
# Experimental: Serum triglyceride (TG), total cholesterol (TC), and HDL-cholesterol (HDL-C) levels were determined using the calorimetric method with commercial kits (Asan Diagnostics, Seoul, Korea). There was no significant difference in serum TG or HDL-C levels, although EASA-treated groups tended to be lower than the HFD-C group (FIG. 4).
# as §1, with “n=8)” for “n=10)”, “n=88)” for “n=50)”, “11 groups (n=8).” for “five groups.”
# In levels of TG, the HFD groups had similar values to the ND group. EASA treated groups reduced the levels of TG versus the HFD group. […] EASA treated groups reduced the levels of TC versus the HFD and ND group.
# [8] = system: rats fed high fat diet; test: Experiment 5: levels of lipid in liver; settings: Exp.5 HFD rats
# Experimental: as §4
# as §1, with “n=8)” for “n=10)”, “n=88)” for “n=50)”, “11 groups (n=8).” for “five groups.”
# [9] = system: rats fed high fat diet; test: Experiment 5: serum levels of leptin and insulin; settings: Exp.5 HFD rats
# Experimental: as §5
# as §1, with “n=8)” for “n=10)”, “n=88)” for “n=50)”, “11 groups (n=8).” for “five groups.”
# Serum leptin and insulin level was measured in the same manner as in Test Example 4. Leptin is a hormone secreted from the adipocyte, in proportion to body fat mass. Leptin and insulin are deeply related with energy homeostasis. Increased leptin induces hyperinsulinemia, which in turn directly stimulates the leptin mRNA in the adipocyte.
# [10] = AE-1 5 mg/kg orally once a day 6 weeks
# [11] = AE-1 10 mg/kg orally once a day 6 weeks
# [12] = AE-1 20 mg/kg orally once a day 6 weeks
structure (smiles),measurement,setting,value
"CC[C@H](/C=C/[C@@H](C)[C@H]1CC[C@H]2C3=CC[C@H]4C[C@@H](O[C@@H]5O[C@H](CO)[C@@H](O)[C@H](O)[C@H]5O)CC[C@]4(C)[C@H]3CC[C@]12C)C(C)C [ABP, α-Spinasterol 3-O-β-D-glucopyranoide]",12 wk B.W,[1],509.20 ± 39.54^ab g
same,FER (food efficiency ratio),[1],0.139 ± 0.018^b
same,Food intake,[1],26.00 ± 3.64 g/day
same,Abdominal fat pad,[2],14.98 ± 3.19^b g
same,Epididymal fat pad,[2],11.55 ± 1.96^ab g
same,FFA (hepatic),[3],1.018 ± 0.25 meq/l
same,TC (hepatic),[3],17.59 ± 2.79^b mg/g liver
same,TG (hepatic),[3],2.65 ± 0.48^b mg/g liver
same,Insulin (serum),[4],1.21 ± 0.60^bc ng/ml
same,Leptin (serum),[4],3.98 ± 0.95^b ng/ml
"CC(C)=C1C/C=C(\C)CC/C=C(\C)CC1=O [AE-1, Germacron]",12 wk B.W,[1],504.40 ± 28.37^b g
same,FER (food efficiency ratio),[1],0.137 ± 0.013^b
same,Food intake,[1],25.82 ± 2.91 g/day
same,Abdominal fat pad,[2],14.18 ± 4.67^b g
same,Epididymal fat pad,[2],10.21 ± 2.69^b g
same,FFA (hepatic),[3],0.869 ± 0.25 meq/l
same,TC (hepatic),[3],13.74 ± 0.92^c mg/g liver
same,TG (hepatic),[3],2.20 ± 0.52^b mg/g liver
same,Glucose (serum),[4],206.60 ± 42.07^ab mg/dl
same,Insulin (serum),[4],1.00 ± 0.27^bc ng/ml
same,Leptin (serum),[4],3.88 ± 1.01^b ng/ml
same,12 wk B.W,[5]; [10],501.71 ± 46.64^b g
same,FER (food efficiency ratio),[5]; [10],0.196 ± 0.029^b
same,Food intake,[5]; [10],17.89 ± 2.97 g/day
same,12 wk B.W,[5]; [11],494.75 ± 45.52^b g
same,FER (food efficiency ratio),[5]; [11],0.189 ± 0.026^b
same,Food intake,[5]; [11],18.24 ± 2.93 g/day
same,12 wk B.W,[5]; [12],490.75 ± 18.27^b g
same,FER (food efficiency ratio),[5]; [12],0.194 ± 0.010^b
same,Food intake,[5]; [12],17.48 ± 2.83 g/day
same,Abdominal fat,[6]; [10],14.50 ± 4.43^ab g
same,Epididymal fat,[6]; [10],11.15 ± 2.39^ab g
same,Total fat,[6]; [10],31.09 ± 8.02^b g
same,Visceral fat,[6]; [10],5.45 ± 2.13^b g
same,Abdominal fat,[6]; [11],14.60 ± 2.20^ab g
same,Epididymal fat,[6]; [11],9.97 ± 2.85^b g
same,Total fat,[6]; [11],29.55 ± 5.25^b g
same,Visceral fat,[6]; [11],4.98 ± 1.53^b g
same,Abdominal fat,[6]; [12],13.76 ± 3.11^ab g
same,Epididymal fat,[6]; [12],11.05 ± 1.44^b g
same,Total fat,[6]; [12],29.49 ± 5.26^b g
same,Visceral fat,[6]; [12],4.68 ± 1.78^b g
same,HDL-cholesterol (serum),[7]; [10],48.39 ± 9.65 mg/dL
same,Total cholesterol (serum),[7]; [10],51.93 ± 10.29^c mg/dl
same,Triglyceride (serum),[7]; [10],91.51 ± 20.50^ab mg/dl
same,HDL-cholesterol (serum),[7]; [11],42.41 ± 8.41 mg/dL
same,Total cholesterol (serum),[7]; [11],62.56 ± 8.33^c mg/dl
same,Triglyceride (serum),[7]; [11],86.94 ± 21.93^ab mg/dl
same,HDL-cholesterol (serum),[7]; [12],55.80 ± 19.57 mg/dL
same,Total cholesterol (serum),[7]; [12],51.91 ± 14.32^c mg/dl
same,Triglyceride (serum),[7]; [12],91.12 ± 24.03^ab mg/dl
same,FFA (liver),[8]; [10],0.868 ± 0.28 meq/l
same,TC (liver),[8]; [10],12.81 ± 1.20^bcd mg/g liver
same,TG (liver),[8]; [10],1.95 ± 0.46^b mg/g liver
same,FFA (liver),[8]; [11],0.831 ± 0.30 meq/l
same,TC (liver),[8]; [11],12.84 ± 1.71^bcd mg/g liver
same,TG (liver),[8]; [11],1.81 ± 1.32^b mg/g liver
same,FFA (liver),[8]; [12],0.775 ± 0.25 meq/l
same,TC (liver),[8]; [12],12.14 ± 1.76^cd mg/g liver
same,TG (liver),[8]; [12],1.88 ± 0.55^b mg/g liver
same,Insulin (serum),[9]; [10],1.35 ± 0.28^bc ng/ml
same,Leptin (serum),[9]; [10],7.63 ± 1.69^b ng/ml
same,Insulin (serum),[9]; [11],1.06 ± 0.40^bc ng/ml
same,Leptin (serum),[9]; [11],6.55 ± 6.28^bc ng/ml
same,Insulin (serum),[9]; [12],0.98 ± 0.21^b ng/ml
same,Leptin (serum),[9]; [12],6.70 ± 2.58^b ng/ml
"CC(C)CC(N(C)C)C1(c2ccc(Cl)cc2)CCC1 (stereo not drawn) [Sibutramine, reference compound]",12 wk B.W,"[5]; Sibutramine 7.5 mg/kg, 6 weeks",462.00 ± 44.93^bc g
same,FER (food efficiency ratio),"[5]; Sibutramine 7.5 mg/kg, 6 weeks",0.183 ± 0.028^b
same,Food intake,"[5]; Sibutramine 7.5 mg/kg, 6 weeks",16.70 ± 2.68 g/day
same,Abdominal fat,"[6]; Sibutramine 7.5 mg/kg, 6 weeks",11.44 ± 3.16^b g
same,Epididymal fat,"[6]; Sibutramine 7.5 mg/kg, 6 weeks",8.75 ± 2.57^bc g
same,Total fat,"[6]; Sibutramine 7.5 mg/kg, 6 weeks",25.30 ± 5.77^b g
same,Visceral fat,"[6]; Sibutramine 7.5 mg/kg, 6 weeks",5.11 ± 0.89^b g
same,HDL-cholesterol (serum),"[7]; Sibutramine 7.5 mg/kg, 6 weeks",46.62 ± 12.21 mg/dL
same,Total cholesterol (serum),"[7]; Sibutramine 7.5 mg/kg, 6 weeks",59.79 ± 19.99^c mg/dl
same,Triglyceride (serum),"[7]; Sibutramine 7.5 mg/kg, 6 weeks",82.62 ± 26.39^ab mg/dl
same,FFA (liver),"[8]; Sibutramine 7.5 mg/kg, 6 weeks",0.871 ± 0.68 meq/l
same,TC (liver),"[8]; Sibutramine 7.5 mg/kg, 6 weeks",13.52 ± 2.15^bc mg/g liver
same,TG (liver),"[8]; Sibutramine 7.5 mg/kg, 6 weeks",1.84 ± 0.21^b mg/g liver
same,Insulin (serum),"[9]; Sibutramine 7.5 mg/kg, 6 weeks",1.02 ± 0.33^bc ng/ml
same,Leptin (serum),"[9]; Sibutramine 7.5 mg/kg, 6 weeks",6.27 ± 1.89^bc ng/ml
